Assay results from patent US8193175B2, “Ruthenium complexes for treating cancers” (Universite de Strasbourg, priority 2004, dated 2012).
“Also recorded” adds a separate entry of the source.

Assays:
[1] = system: A172 glioblastoma cells; test: Nucleus morphology and caspase 3 activation in A172 cells; format: cell-based, human; settings: cisplatinum 15 μM, CDR6 15 μM, CDR9 15 μM
Description: FIG. 2: A—The A172 cells were cultivated on glass slides. […] The cells were then fixed in 4% paraformaldehyde, permeabilised with 0.1% NP40 and marked with Hoechst dye (blue) and the anti-p20 antibody (active fragment of caspase 3, in red). The cells were then observed under the fluorescence microscope. B—Graphic representation of the number of cells with an apoptotic, fragmented or condensed nucleus. The bars are an average of two slides from one experiment representative of 3 carried out. C—In parallel, proteic extracts were prepared from cells treated with various drugs (cisplatinum 15 μM; CDR225 μM; CDR615 μM; CDR915 μM) and following denaturation the extracts were deposited on a !0% SDS-Page gel. After migration, the proteins were transferred onto nitrocellulose (Biorad, 0.2 μm) and the p20 fragment of the caspase 3 was detected by Western blot with an anti-p20 antibody (1/1000, R&D System).
The first step towards characterising the anticancerous effects of the compounds derived from ruthenium consists of testing their activity on tumoral lines kept in culture and comparing these effects on lines which have different characteristics as regards resistance to the anticancer treatments. Two lines of human glioblastomas (A172, HS683) and two lines of neuroblastomas (N2A and SH5Y) were used in order to test the cytostatic effects of the compounds according to the invention. Cisplatinum was chosen as the cytotoxic comparison agent. In a first approach, an MTT test was used to measure the activity of a mitochondrial enzyme, and this gives an estimate of the number of cells. Then, the cytotoxic effects of the compounds according to the invention were characterised in greater detail by analysing the morphology of the nucleus and the activation of caspase 3—two markers of cell apoptosis.

[2] = system: A172 cells; test: Western blot of p53, p73, p21 and Bax in A172 cells; format: cell-based, human
Procedure: FIG. 3: Detection of p53 and p73 in A172 cells treated with CDR. The A172 cells were treated with the concentrations indicated (2, 5 or 10 μM) with the various compounds and for the periods of time indicated (24 hrs or 6 hrs). The proteins were extracted with a lysis buffer and were separated on 10% SDS-Page gel. After being transferred onto nitrocellulose, the p53 and p73 proteins were detected by Western blot using anti-p53 (pAb1801) and anti-p73 (1/200, Ab2, Oncogene) antibody.
FIG. 4: Detection of p21 and Bax in A172 cells treated with CDR. The A172 cells were treated with the various compounds (10 μM) for 24 hrs. The proteins were extracted with a lysis buffer and were separated on 10% SDS-Page gel. After being transferred onto nitrocellulose, the p21 and Bax proteins were detected by Western blot using anti-p21 (1/200, Oncogene) and anti-Bax (1/2000, Santacruz) antibody.
(§1) For the purpose of determining the molecular mechanisms used by the ruthenium derivatives and comparing them with those induced by cisplatinum, the expression of p53, p73 p21 and bax in the A172 and HCT116 lines was analysed.

[3] = system: HCT116 cells; test: Western blot of p53, p21 and phospho-histone H3 in HCT116 cells; format: cell-based, human; settings: 10 μM
Procedure: FIG. 5: Detection of p53, p21 and of the phosphorylation of histone H3 in the HCT116 cells treated with CDR. The HCT116 cells were treated with the various compounds (10 μM) and for the periods of time indicated (24 hrs or 6 hrs). The proteins were extracted with a lysis buffer and were separated on 10% SDS-Page gel. After being transferred onto nitrocellulose, the p53, p21 proteins and histone H3 were detected by Western blot using anti-p53 (pAb1801), anti-p21 (1/200, Oncogene) antibody and anti-phospho serine 10 of histone H3 (1/2000, Santacruz).
as §1

[4] = system: 2008/CMV and 2008/ATP7B cells; test: MTT test on 2008/CMV and 2008/ATP7B cells; format: cell-based; settings: 48 hrs
Procedure: FIG. 6: The 2008/CMV and 2008/ATP7B cells (contributed by Dr. Howell) were cultivated in plates with 96 wells in DMEM medium with 10% calf serum. At 30% confluence, the cells were treated for 48 hrs with cisplatinum or the various compounds derived from ruthenium in the concentrations indicated (1, 5, 15, 50 μM). The quantity of cells present in the wells was evaluated by an MTT (MTT, Sigma) test. The results obtained were related to the values of the control condition (100% viability). The graphs show an average of 8 points with the typical spacings over one experiment representative of 3 carried out. The thick black line indicates the IC50 for each graph.
One of these mechanisms is the overexpression of the copper export pump (ATP7B) which expels cisplatinum from the cell. It has been shown that this molecule is overexpressed in human tumours and that cell lines which overexpress this molecule are more resistant to cisplatinum and carboplatinum than control lines.
Two cell lines derived from 2008 cells (Katano, Safaei et al. 2003) were studied. One overexpresses the ATP7B pump, and the other only contains the control vector. The cytostatic activity of the cisplatinum and the CDR was tested in these two lines using the MTT test.

[5] = system: U-87 cells (a human glioblastoma); test: In vivo test, U-87 cells grafted onto nude/nude SWISS mice; settings: 18.5 mg/Kg intraperitoneally per injection, accumulated dose 185 mg/Kg
Procedure: The animals are manipulated under a laminar flow hood. Ten nude/nude (athymic) eleven week old SWISS mice were grafted subcutaneously with U-87 cells (a human glioblastoma) on the left thigh. After 7 days, the tumours become apparent and treatment commences. The animals are separated into two groups of five, 5 mice are thus treated with D-PBS (control mice) and the 5 others with RDC-11 (treated mice).
For the treated mice, 2 mg of RDC-11 placed in solution in 4 mL hot D-PBS for each injection. 0.5 mL of this solution cooled down to ambient temperature is administered intraperitoneally to each mouse. For the control mice, 0.5 mL D-PBS at ambient temperature is administered in the same way.
The dose of RDC-11 injected is 18.5 mg/Kg mouse. The accumulated dose is therefore 185 mg/Kg.
The development of the apparent tumours was followed by measuring them with calipers, by weighing the mice and by scanning one mouse from each batch with a CT-scan after injecting a contrast product (Fenestra VC). The mice were individualised by a mark on the ear.
The volume of the apparent tumours was calculated according to the formula:
V=(4/3)*π*(L/2)*(I/2)^2 where L is the length and I the width measured.

Row | Molecule | proteic levels of the active fragment of caspase 3 (Western blot) [1] | expression of p21 and Bax ([2]; 10 μM, 24 hours treatment) | p53 proteic levels ([2]; 6 hrs treatment) | p53 proteic levels ([2]; 24 hrs treatment) | increase in expression of p21 and inhibition of phosphorylation of histone H3 [3] | sensitivity of the line expressing ATP7B relative to the control line (MTT) [4] | toxicity in grafted mice [5] | weight and volume of the tumours / tumoral growth ([5]; listed as RDC-11)
1 | N.N.[Cl][Pt][Cl] [Cisplatinum, reference compound] | increasing the proteic levels of the active fragment of caspase 3 | induces the expression of p21 and Bax | induce p53 | induces the p53 proteic levels | identical for CDR 6 and cisplatinum | significantly less sensitive | – | –
2 | [Ru(C6H4-2-C5H4N)(phen)(NCMe)2]PF6 [Compound 11] | – | – | – | – | – | – | without any toxicity | less in relation to the controls; also recorded: changes the nature of tumoral growth
